Where two headings read alike, the source gives them in different places.
Molecular target: recombinant SARS-CoV-2 M^pro (Severe acute respiratory syndrome coronavirus 2 (2019-nCoV) (SARS-CoV-2), UniProt P0DTD1)
Assay: Inhibition of SARS-CoV-2 M^pro enzyme activity (fluorescent substrate assay)
Format: biochemical
Settings: inhibition of SARS-CoV-2 M^pro enzyme activity, read-out: IC50

**Q.** For `C[C@H](NC(=O)C1CCC(F)(F)CC1)C(=O)N[C@H](Cc1ccccc1)C(=O)C(=O)NCc1ccccn1` [Compound 452], which IC50 (values in nM) is on record?
**A.** 66.2 ± 0.9 nM

**Q.** With `Cc1nn(CC(=O)N[C@H](Cc2ccccc2)C(=O)C(=O)NCc2nccs2)c(C)c1-c1ccc(F)c(Cl)c1` [Compound 499] as the compound, how does the IC50 (values in nM) read?
**A.** 32.9 ± 1.5 nM

**Q.** With `O=C(CC1CCC(F)(F)CC1)N[C@H](CC1CCCCC1)C(=O)N[C@H](Cc1ccccc1)C(=O)C(=O)NCc1ccccn1` [Compound 236] as the compound, how does the IC50 (values in nM) read?
**A.** 41.4 ± 0.1 nM

**Q.** With `O=C(CC12CC3CC(CC(C3)C1)C2)NC1(C(=O)N[C@H](Cc2ccccc2)C(=O)C(=O)NCc2ccccn2)CCC1` [Compound 196] as the compound, how does the IC50 (values in nM) read?
**A.** 14.5 ± 0.1 nM

**Q.** Which IC50 (values in nM) does the source give for `Cc1cc(-c2cc(Cl)cc(C#N)c2)nn1C1(C(=O)N[C@H](Cc2ccccc2)C(=O)C(=O)NCc2nccs2)CC1` [Compound 517] here?
**A.** 56.2 ± 3.2 nM

**Q.** How did the IC50 (values in nM) turn out when `O=C(NCc1nccs1)C(=O)[C@@H](Cc1ccccc1)NC(=O)[C@@H](CO)NC(=O)C1CCCC(F)(F)C1` (some centres unmarked) [Compound 570] was run?
**A.** 40.6 ± 2 nM

**Q.** How did the IC50 (values in nM) turn out when `C[C@@H](OCc1ccc(F)cc1)C(=O)N[C@H](Cc1ccccc1)C(=O)C(=O)NCc1ccccn1` [Compound 9] was run?
**A.** 12.1 ± 2.5 nM

**Q.** With `O=C(NCc1ccccn1)C(=O)[C@@H](Cc1ccccc1)NC(=O)[C@@H]1CC2(CC2)CN1C(=O)C1CCC(F)(F)CC1` [Compound 272] as the compound, how does the IC50 (values given in μM) read?
**A.** > 2500 nM

**Q.** With `O=C(NCc1ccccn1)C(=O)[C@@H](Cc1ccccc1)NC(=O)C1(NC(=O)[C@H]2CC[C@@H](F)CC2)CCC1` [Compound 188] as the compound, how does the IC50 (values in nM) read?
**A.** 79 ± 8.8 nM

**Q.** Which IC50 (values in nM) does the source give for `O=C(CNC(=O)N1CCC(F)(F)CC1)N[C@H](Cc1ccccc1)C(=O)C(=O)NCc1ccccn1` [Compound 304] here?
**A.** 53.8 ± 5.8 nM

**Q.** `O=C(NCc1cscn1)C(=O)[C@@H](Cc1ccccc1)NC(=O)[C@H]1COCCN1C(=O)CC1CC(F)(F)C1` [Compound 436] was tested. Which IC50 (values in nM) did it give?
**A.** 171 ± 2.4 nM

**Q.** For `O=C(N[C@H](C1CC1)C(F)(F)F)NC1(C(=O)N[C@H](Cc2ccccc2)C(=O)C(=O)NCc2ccccn2)CCC1` [Compound 307], which IC50 (values in nM) is on record?
**A.** 26 ± 2.1 nM

**Q.** Which IC50 (values in nM) does the source give for `C[C@@H](NC(=O)[C@H]1CC[C@H](C#N)CC1)C(=O)N[C@H](Cc1ccccc1)C(=O)C(=O)NCc1ccccn1` [Compound 117] here?
**A.** 46.1 ± 0.3 nM

**Q.** How did the IC50 (values in nM) turn out when `C[C@@H](NC(=O)CC1CC1(F)F)C(=O)N[C@H](Cc1ccco1)C(=O)C(=O)NCc1nccs1` (some centres unmarked) [Compound 368] was run?
**A.** 197 ± 14 nM

**Q.** For `O=C(Cc1ccccc1)N[C@H](Cc1ccccc1)C(=O)C(=O)NCc1nccs1` [Compound 474], which IC50 (values in nM) is on record?
**A.** 949 ± 39.9 nM

**Q.** With `O=C(NCc1nccs1)C(=O)[C@@H](Cc1ccccc1)NC(=O)[C@@H](CO)NC(=O)C1CCCC(F)(F)C1` (some centres unmarked) [Compound 567] as the compound, how does the IC50 (values in nM) read?
**A.** 63.6 ± 2.9 nM

**Q.** `O=C(CNC(=O)C1CCC(F)(F)CC1)N[C@H](Cc1ccccc1Cl)C(=O)C(=O)NCc1ccccn1` [Compound 449] was tested. Which IC50 (values in nM) did it give?
**A.** 45.3 ± 1.2 nM

**Q.** Which IC50 (values in nM) does the source give for `C[C@@H](NC(=O)c1cccc(OC(F)(F)F)c1)C(=O)N[C@H](Cc1ccccc1)C(=O)C(=O)NCc1ccccn1` [Compound 143] here?
**A.** 16.4 ± 1.5 nM

**Q.** How did the IC50 (values in nM) turn out when `C[C@@H](NC(=O)CCc1ccccc1)C(=O)N[C@H](Cc1ccccc1)C(=O)C(=O)NCc1ccccn1` [Compound 66] was run?
**A.** 11.7 ± 0.1 nM

**Q.** For `C[C@@H](NC(=O)C(F)Oc1ccc(Cl)cc1Cl)C(=O)N[C@H](Cc1ccccc1)C(=O)C(=O)NCc1ccccn1` (some centres unmarked) [Compound 94], which IC50 (values in nM) is on record?
**A.** 13.5 ± 1.3 nM

**Q.** For `CC(C)(NC(=O)c1ccc2c(c1)OC(F)(F)O2)C(=O)N[C@H](Cc1ccccc1)C(=O)C(=O)NCc1ccccn1` [Compound 182], which IC50 (values in nM) is on record?
**A.** 22.4 ± 0.5 nM

**Q.** Which IC50 (values in nM) does the source give for `C[C@@H](OCc1ccc(OC(F)(F)F)cc1)C(=O)N[C@H](Cc1ccccc1)C(=O)C(=O)NCc1ccccn1` [Compound 4] here?
**A.** 20.4 ± 1.8 nM

**Q.** With `COc1ccc(OC(F)(F)F)cc1C(=O)N[C@H](C)C(=O)N[C@H](Cc1ccccc1)C(=O)C(=O)NCc1nccs1` [Compound 384] as the compound, how does the IC50 (values in nM) read?
**A.** 15.5 ± 0.3 nM

**Q.** Which IC50 (values in nM) does the source give for `CC[C@@H](NC(=O)c1ccc(F)cc1)C(=O)N[C@H](Cc1ccccc1)C(=O)C(=O)NCc1ccccn1` [Compound 246] here?
**A.** 23.6 ± 0.3 nM

**Q.** For `O=C(NCc1ccccn1)C(=O)[C@@H](Cc1ccccc1)NC(=O)[C@H]1CCCCN1C(=O)[C@@H]1C[C@@H]2[C@H](C1)C2(F)F` [Compound 286], which IC50 (values in nM) is on record?
**A.** 16.3 ± 1.5 nM

**Q.** For `O=C(CNC(=O)[C@@H]1C[C@@H]2[C@H](C1)C2(F)F)N[C@H](Cc1ccccc1)C(=O)C(=O)NCc1ccccn1` [Compound 152], which IC50 (values in nM) is on record?
**A.** 18.7 ± 0.6 nM

**Q.** With `O=C(NCc1ccccn1)C(=O)[C@@H](Cc1ccccc1)NC(=O)[C@@H]1C[C@@H]2CCCC[C@@H]2N1C(=O)C1CCC(F)(F)CC1` [Compound 264] as the compound, how does the IC50 (values given in μM) read?
**A.** > 2500 nM

**Q.** Which IC50 (values in nM) does the source give for `O=C(Cc1noc(C2CCC(F)(F)CC2)n1)N[C@H](Cc1ccccc1)C(=O)C(=O)NCc1nccs1` [Compound 533] here?
**A.** 69 ± 6.9 nM

**Q.** For `C[C@@H](OCc1ccccc1)C(=O)N[C@H](Cc1ccccc1)C(=O)C(=O)NCc1ccccn1` [Compound 1, (R)-3-((R)-2-(benzyloxy)propionamido)-2-oxo-4-phenyl-N-(pyridin-2-ylmethyl)butyramide], which IC50 (values in nM) is on record?
**A.** 14.6 ± 1.3 nM

**Q.** How did the IC50 (values in nM) turn out when `CC(C)(NC(=O)c1ccc(F)cc1)C(=O)N[C@H](Cc1ccccc1)C(=O)C(=O)NCc1ccccn1` [Compound 186] was run?
**A.** 18.6 ± 1.1 nM

**Q.** How did the IC50 (values in nM) turn out when `CC(C)(C(=O)N[C@H](Cc1ccccc1)C(=O)C(=O)NCc1ccccn1)n1cc(Br)cn1` [Compound 327] was run?
**A.** 245 ± 2.7 nM

**Q.** `C[C@@H](NC(=O)Cc1ccc(C(F)(F)F)cc1)C(=O)N[C@H](Cc1ccccc1)C(=O)C(=O)NCc1ccccn1` [Compound 78] was tested. Which IC50 (values in nM) did it give?
**A.** 53.2 ± 0.5 nM

**Q.** For `CC(C)[C@@H](NC(=O)C1CCC(F)(F)CC1)C(=O)N[C@H](Cc1ccccc1)C(=O)C(=O)NCc1nccs1` [Compound 536], which IC50 (values in nM) is on record?
**A.** 24.8 ± 0.3 nM

**Q.** `O=C(NCc1ccccn1)C(=O)[C@@H](Cc1ccccc1)NC(=O)C1(NC(=O)C2CCC(F)(F)CC2)Cc2ccccc2C1` [Compound 243] was tested. Which IC50 (values in nM) did it give?
**A.** 18.4 ± 0.1 nM

**Q.** Which IC50 (values given in μM) does the source give for `O=C(NCc1ccon1)C(=O)[C@@H](Cc1ccccc1)NC(=O)c1ccccc1` [Compound 459] here?
**A.** 54740 ± 350 nM

**Q.** How did the IC50 (values in nM) turn out when `O=C(NCc1nccs1)C(=O)[C@@H](Cc1ccccc1)NC(=O)C1(NC(=O)C2CCC(F)(F)CC2)CCCCC1` [Compound 542] was run?
**A.** 52.4 ± 7 nM

**Q.** Which IC50 (values in nM) does the source give for “(R)-3-((R)-2-(benzyloxy)propionamido)-N-((5-chloropyridin-2-yl)methyl)-4-(4-fluorophenyl)-2-oxobutyramide [Compound 52]” here?
**A.** 44.2 ± 3.4 nM

**Q.** Which IC50 (values in nM) does the source give for `C[C@@H](OCc1ccc(Cl)c(Cl)c1)C(=O)N[C@H](Cc1ccccc1)C(=O)C(=O)NCc1ccccn1` [Compound 12] here?
**A.** 12.3 ± 0.8 nM

**Q.** `Cc1nn(CC(=O)N[C@H](Cc2ccccc2)C(=O)C(=O)NCc2nccs2)c(C)c1C1CCC(F)(F)CC1` [Compound 509] was tested. Which IC50 (values in nM) did it give?
**A.** 151 ± 6.6 nM

**Q.** How did the IC50 (values in nM) turn out when `O=C(CNC(=O)c1ccc(Cl)cc1)N[C@H](Cc1ccccc1)C(=O)C(=O)NCc1ccccn1` [Compound 439] was run?
**A.** 46.2 ± 0.3 nM

**Q.** With `COC[C@@H](NC(=O)OC1CC(F)(F)C1)C(=O)N[C@H](Cc1ccccc1)C(=O)C(=O)NCc1nccs1` [Compound 553] as the compound, how does the IC50 (values in nM) read?
**A.** 18.8 ± 4.6 nM

**Q.** Which IC50 (values given in μM) does the source give for `O=C(NCc1nccs1)C(=O)[C@@H](Cc1ccccc1F)NC(=O)c1ccccc1` [Compound 464] here?
**A.** 3500 ± 230 nM

**Q.** How did the IC50 (values given in μM) turn out when `O=C(NCc1nccs1)C(=O)[C@@H](Cc1ccc(Cl)c(Cl)c1)NC(=O)c1ccccc1` [Compound 470] was run?
**A.** 2030 ± 70 nM

**Q.** For `O=C(NCc1ccccn1)C(=O)[C@@H](Cc1ccccc1)NC(=O)[C@H]1C[C@H]2C[C@H]2N1C(=O)C1CCC(F)(F)CC1` [Compound 269], which IC50 (values in nM) is on record?
**A.** 19.6 ± 0.4 nM

**Q.** For `COC[C@@H](NC(=O)[C@H]1CC[C@@H](F)CC1)C(=O)N[C@H](Cc1ccccc1)C(=O)C(=O)NCc1nccs1` [Compound 399], which IC50 (values in nM) is on record?
**A.** 32.8 ± 1.5 nM

**Q.** For `CC(C)(C(=O)N[C@H](Cc1ccccc1)C(=O)C(=O)NCc1ccccn1)C(=O)N1CCC(C(F)(F)F)CC1` [Compound 325], which IC50 (values in nM) is on record?
**A.** 177 ± 2.5 nM

**Q.** How did the IC50 (values in nM) turn out when `C[C@@H](NC(=O)c1cc(F)cc(Cl)c1)C(=O)N[C@H](Cc1ccccc1)C(=O)C(=O)NCc1ccc(Cl)cn1` [Compound 60] was run?
**A.** 24.9 ± 0.1 nM

Source: patent US20250064789A1, “KETOAMIDE DERIVATIVES AND PHARMACEUTICAL USES THEREOF” (priority 2022, published 2025)
